Assay results reported in PMC3894558, “Chemical signatures and new drug targets for gametocytocidal drug development” (Scientific Reports, 2014).
Where two headings read alike, the source gives them in different places.

Tested on: P. falciparum 3D7 gametocytes
Experiment: alamarBlue gametocyte viability assay, strain 3D7
Assay type: cell-based, Plasmodium falciparum
Conditions: Malaria Box; for Max Resp: DMSO set at 0%, 100 nM epoxomicin set at -100%; for Curve Class / IC50: stages III-V 3D7 gametocytes; for IC50: 11 concentrations, 1:3 dilution; call rule not given here

Row | Compound | Max Resp [%] | Curve Class | IC50 (read-out: IC50) [µM] | IC50
1 | O=C(NCCCN1CCC(N2CCCCC2)CC1)C1=Cc2cc(Br)ccc2OC1 [MMV019995] | -99 | -1.1 | 5.26 | 
2 | Cc1cc(N(C)C)nc(Nc2ccc(NC(=O)Nc3ccccc3)cc2)n1 [MMV020243] | -73 | -2.2 | 11.8 | 
3 | O=C(NC1CCN(Cc2ccccc2)CC1)c1cc(-c2ccncc2)nc2ccc(Cl)cc12 [MMV020275] | -48 | -2.2 |  | Inactive
4 | COc1ccc(-c2cn3c(C(=O)Nc4ccccc4Cl)c(-c4ccccc4)c4c3n2CCCC4)cc1 [MMV020403] | -73 | -2.2 | 23.5 | 
5 | CCn1c(CN2CCN(Cc3ccccc3)CC2)nc2cc(NC(=O)c3cccs3)ccc21 [MMV020439] | -25 | 4 |  | Inactive
6 | O=C(NC1CCN(Cc2ccccc2)CC1)c1cc(-c2cccnc2)nc2ccc(Cl)cc12 [MMV020490] | -61 | -2.2 | 29.6 | 
7 | CC1CN(C(=O)c2sc3ccccc3c2Cl)CC(C)O1 (stereo not drawn) [MMV020492] | -36 | -2.2 |  | Inactive
8 | CNCCCNc1ccnc2cc(Cl)ccc12 [MMV020500] | -63 | -1.2 | 0.235 | 
9 | CN(C)CCCNCc1ccc(-c2ccc(F)c(Cl)c2)o1.Cl [MMV020505] | -98 | -1.1 | 3.32 | 
10 | CCN1CCN(Cc2ccc(NC(=O)c3cc4ccc5cccnc5c4[nH]3)cc2)CC1 [MMV020548] | -56 | -3 |  | Inactive
11 | CC1CCN(Cc2ccc(NC(=O)c3cc4ccc5cccnc5c4[nH]3)cc2)CC1 [MMV020549] | -75 | -2.2 | 14.8 | 
12 | O=C(Nc1ccc(CN2CCOCC2)cc1)c1ccc(-c2cc(Cl)ccc2Cl)o1 [MMV020651] | -23 | 4 |  | Inactive
13 | CCC(O)c1ccc(Br)cc1NC(=O)c1cccc(Cl)c1 (stereo not drawn) [MMV020654] | -37 | -1.2 | 2.09 | 
14 | COc1ccc(-c2nonc2NC(=O)c2cccc(Cl)c2)cc1OC [MMV020660] | -67 | -2.2 | 23.5 | 
15 | CC(=O)Nc1nnc(SCc2c(C)cc(C(C)(C)C)cc2C)s1 [MMV020700] | -2 | 4 |  | Inactive
16 | COc1cc(-c2nc(-c3ccccc3)c(-c3ccccc3)[nH]2)cc(OC)c1O [MMV020750] | -55 | -2.2 | 37.2 | 
17 | Cl.Oc1ccccc1CNCC12CC3CC(CC(C3)C1)C2 [MMV020788] | -43 | -1.2 | 0.105 | 
18 | COc1ccc(Br)cc1C1Nc2ccc3ccccc3c2C2=C1C(=O)CC(c1ccccc1)C2 (stereo not drawn) [MMV020885] | -29 | 4 |  | Inactive
19 | Cc1ccc(-c2nc3ccccc3o2)cc1NCc1cc(Cc2ccccc2)ccc1O [MMV020912] | -63 | -2.2 | 23.5 | 
20 | CCC(=O)Nc1nnc(Cc2ccc(OC)c(OC)c2)s1 [MMV020942] | -19 | 4 |  | Inactive

Row | Compound | Max Resp [%] | Curve Class | IC50 (read-out: IC50) [µM] | IC50
21 | COc1cc(SC)ccc1C(=O)N1CCCC(C)C1 (stereo not drawn) [MMV056726] | -5 | 4 |  | Inactive
22 | CN(C)c1ccc(N=Cc2ccc(N3CCOCC3)cc2)cc1 [MMV073843] | -98 | -1.1 | 2.35 | 
23 | CCOc1ccc(C2N(C)c3ccccc3N2C)cc1 [MMV075490] | -38 | -2.2 |  | Inactive
24 | Nc1nc(Nc2cccc(F)c2)nc2ccccc12 [MMV080034] | -61 | -2.2 | 29.6 | 
25 | COc1ccc(C=C2SC(Nc3ccc(F)cc3)=NC2=O)c(OC)c1 [MMV084434] | -24 | 4 |  | Inactive
26 | COc1cc2c(cc1OC)C1=NNC(=O)C1=NC(C)(C)C2 [MMV084940] | -133 | -1.1 | 1.32 | 
27 | COc1ccccc1NC1=C(N2CCCCC2)C(=O)c2ccccc2C1=O [MMV085203] | -97 | -2.1 | 7.43 | 
28 | CCOc1ccc(-n2cc(-c3ccccc3)c3c(SCc4cc(C)ccc4C)ncnc32)cc1 [MMV085471] | 1 | 4 |  | Inactive
29 | Cc1ccc(C(=O)c2oc3ccc4c(C)cc(=O)oc4c3c2C)cc1 [MMV086103] | 0 | 4 |  | Inactive
30 | COc1cc(CNCCc2ccc(Cl)cc2)cc(OC)c1O [MMV128432] | -81 | -2.1 | 11.8 | 
31 | CC(C)(C)c1ccc(C(=O)Nc2nc3ccccc3s2)cc1 [MMV142383] | -10 | 4 |  | Inactive
32 | COc1ccc2nc(C)cc(Nc3ccccc3O)c2c1 [MMV274073] | -66 | -2.2 | 23.5 | 
33 | CCN(CC)CCNc1ncnc2c1[nH]c1ccc(Br)cc12 [MMV305841] | -95 | -1.1 | 5.26 | 
34 | CCn1nc(-c2ccc(C(=O)OC)cc2)nc2c(=O)n(C)c(=O)nc1-2 [MMV306025] | -98 | -1.1 | 4.69 | 
35 | COc1ccc(-c2nc(N3CCN(C(=O)C4CCCCC4)CC3)c3c4c(sc3n2)CCCC4)cc1 [MMV396594] | -12 | 4 |  | Inactive
36 | CCOc1c(Cl)cc(CNCC(O)c2ccccc2)cc1OC (stereo not drawn) [MMV396632] | -76 | -2.2 | 9.35 | 
37 | CCOc1cc(CNC(C)C(O)c2ccccc2)cc(Cl)c1OCC (stereo not drawn) [MMV396633] | -72 | -2.2 | 11.8 | 
38 | O=C(NC1CCN(Cc2ccccc2)CC1)c1cc2nc(-c3ccc(Cl)s3)cc(C(F)(F)F)n2n1 [MMV396635] | -24 | 4 |  | Inactive
39 | Cc1sc(NC(=O)c2ccccc2)c(C(c2cccs2)N2CCN(c3ccccc3)CC2)c1C (stereo not drawn) [MMV396652] | -1 | 4 |  | Inactive
40 | Cc1sc(NC(=O)c2ccco2)c(C(c2cccnc2)N2CCC(Cc3ccccc3)CC2)c1C (stereo not drawn) [MMV396663] | -85 | -2.1 | 16.6 | 

Row | Compound | Max Resp [%] | Curve Class | IC50 (read-out: IC50) [µM] | IC50
41 | CCOC(=O)c1c(C)n(-c2ccccc2)c2ccc(OC(=O)c3cc(OC)c(OC)c(OC)c3)cc12 [MMV396664] | -4 | 4 |  | Inactive
42 | COc1cc(C(=O)Nc2nc3c(cc4c5c(cccc53)CC4)s2)cc(OC)c1OC [MMV396665] | -24 | 4 |  | Inactive
43 | Cc1cc(N2CCCC2)nc(Nc2ccc(NC(=O)CCc3ccccc3)cc2)n1 [MMV396669] | -75 | -2.2 | 11.8 | 
44 | O=C(NCC(c1ccsc1)N1CCCCCC1)c1ccc(C(F)(F)F)cc1 (stereo not drawn) [MMV396672] | -37 | -2.2 |  | Inactive
45 | COc1ccc(-c2cc3c(SCC(=O)Nc4cc(C(F)(F)F)ccc4Cl)nccn3n2)cc1 [MMV396679] | 0 | 4 |  | Inactive
46 | Cc1ccc(-c2cc3c(SCC(=O)Nc4cc(C(F)(F)F)ccc4Cl)nccn3n2)cc1 [MMV396680] | -21 | 4 |  | Inactive
47 | Cc1cc(NC(=O)c2cccc(C(F)(F)F)c2)n(-c2nc(-c3ccc4c(c3)OCO4)cs2)n1 [MMV396681] | -3 | 4 |  | Inactive
48 | C[n+]1c2ccccc2nc2ccc(NCCO)cc21 [MMV396693] | -85 | -1.1 | 2.96 | 
49 | CCN(CC)CCNc1ncnc2c1[nH]c1ccc(Cl)cc12 [MMV396703] | -81 | -1.1 | 3.72 | 
50 | CN1CCN(c2ncnc3c2[nH]c2ccc(Cl)cc23)CC1 [MMV396704] | -57 | -2.2 | 37.2 | 
51 | COc1cccc(Cn2c(Oc3ccccc3)nc3c2c(=O)n(C)c(=O)n3C)c1 [MMV396705] | -1 | 4 |  | Inactive
52 | CC1(c2ccccc2)Nc2ccccc2-c2nc3ccccc3n21 (stereo not drawn) [MMV396715] | -84 | -2.1 | 16.6 | 
53 | COc1ccc(CCN2C(=O)c3[nH]nc(-c4cc(Cl)c(C)cc4O)c3C2c2ccccc2F)cc1 (stereo not drawn) [MMV396717] | -70 | -2.2 | 23.5 | 
54 | COc1cccc(C2(C)Nc3ccccc3-c3nc4ccccc4n32)c1 (stereo not drawn) [MMV396719] | -71 | -2.2 | 23.5 | 
55 | N=c1n(CCN2CCCCC2)c2ccccc2n1CC(=O)c1ccc(Cl)c(Cl)c1 [MMV396723] | -92 | -2.1 | 14.8 | 
56 | N#Cc1nc(Cc2cccc3ccccc23)oc1N1CCN(C(c2ccccc2)c2ccccc2)CC1 [MMV396726] | -1 | 4 |  | Inactive
57 | OC(CNCC1CCCO1)Cn1c2ccc(Cl)cc2c2cc(Cl)ccc21 (stereo not drawn) [MMV396736] | -70 | -2.2 | 23.5 | 
58 | CC(C)CNC(=O)c1c(N)n(CCc2ccccc2F)c2nc3ccccc3nc12 [MMV396744] | -70 | -1.2 | 3.32 | 
